From patent US12465627B2, “Immunity-boosting agent, immuno-therapeutic anti-cancer agent, and anti-cancer therapy adverse effect mitigating agent containing anthocyanin-fucoidan complex as active ingredient” (JBKLAB CO., LTD., priority 2017, dated 2025)

Key:
[1] = system: CD8 T cells and NK cells in blood; assay: Immune cell activity and weight recovery in doxorubicin-treated mice; type: in vivo, Balb/c mice; conditions: DOX 10 mg/kg on day 1 and 5; oral administration for 14 days; flow cytometry
[2] = system: SK-BR-3 (human breast cancer) transplanted tumor; assay: Combined administration with doxorubicin in SK-BR-3 transplanted mice; type: in vivo, Balb/c mice; conditions: after second intravenous administration of doxorubicin
[3] = mouse, in vivo

Row | Compound | immune cells (CD8 T cell and NK cell) in blood [1] | body weight change [2] | BASO [3] | EOS [3] | HCT [3] | HGB [3] | LYM [3] | MCHC [3] | MONO [3] | NEUT [3] | PLT [3] | RBC [3] | WBC [3]
1 | COc1cccc2c1C(=O)c1c(O)c3c(c(O)c1C2=O)C[C@@](O)(C(=O)CO)C[C@@H]3O[C@H]1C[C@H](N)[C@H](O)[C@H](C)O1 [DOX, doxorubicin] | immune cells decreased | rapid decrease in body weight | 3.2% | 3% | 52.6% | 16.5 g/dL | 53.7% | 15 g/dL | 4.3% | 33.9% | 1954 ×10^3 cells/μL | 10.99 ×10^6 cells/μL | 6.57 ×10^3 cells/μL
2 | fucoidan | – | – | 1.5% | 6.1% | 39.8% | 10.9 g/dL | 14.3% | 12 g/dL | 4.6% | 67.9% | 1242 ×10^3 cells/μL | 9.14 ×10^6 cells/μL | 18.41 ×10^3 cells/μL
